Laboratory results: patent US20040152715A1, “Cycloalkylene amide compounds as NR2B receptor antagonists” (priority 2002, published 2004)

Key:
NR2B receptor = molecular target: T1, NR2B receptor (Rattus norvegicus, UniProt P35439+Q00960); experiment: NR2B Binding Assay; conditions: statement in words in Background Art on prior-art compounds; test not named
T1 construct: Membranes were prepared by homogenization of forebrain of male CD rats; from tissue; host or cells: rat forebrain P2 membranes
Procedure: The activity of the cycloalkylene amide compounds of the present invention, as NR2B antagonists, is determined by their ability to inhibit the binding of NR2B subunit at its receptor sites employing radioactive ligands.
The NR2B antagonist activity of the cycloalkylene amide compounds is evaluated by using the standard assay procedure described in, for example, J. Pharmacol., 331, pp117-126, 1997. This method essentially involves determining the concentration of the individual compound required to reduce the amount of radiolabelled NR2B ligands by 50% at their receptor sites, thereby affording characteristic IC50 values for each compound tested. More specifically, the assay is carried out as follows.
Membranes were prepared by homogenization of forebrain of male CD rats weighing between 170˜190 g by using glass-Teflon homogenizer in 0.32 M sucrose at 4° C. The crude nuclear pellet was removed by centrifugation at 1000×g for 10 min, and the supernatant centrifuged at 17000×g for 25 min. […]
For the saturation assay, receptor saturation was determined by incubating [^3H]-CP-98,113 and 50 μg protein of P2 membrane for 60 minutes at room temperature in a final 100 μl of incubation buffer (50 mM Tris HCl, pH7.4). Total and non-specific bindings (in the presence of 10 μM of unlabeled CP-98,113) were determined in a range of [^3H]-CP-98113 concentrations (0.625 nM to 60 nM). […]
For the competition assay, test compounds were incubated in duplicate with 5 nM [^3H]-CP-98,113 and 50 μg protein of P2 membrane for 60 minutes at room temperature in a final 100 μl of 50 mM Tris HCl buffer (pH7.4). Nonspecific binding was determined by 10 μM of unlabeled CP-98,113 (25 μl). […]
All incubations were terminated by rapid vacuum filtration over 0.2% polyethyleneimine soaked Whatman GF/B glass fibre filter paper using a SKATRON cell harvester followed by three washes with ice-cold filtration buffer (5 mM Tris HCl, pH 7.4.). Receptor-bound radioactivity was quantified by liquid scintillation counting using Packard LS counter. […]

human NR1b/2B receptor = molecular target: T2, human NR1b/2B receptor (Homo sapiens, UniProt Q13224); experiment: Human NR2B Cell Functional Assay; format: cell-based; conditions: statement in words in Background Art; test not named
T2 construct: expressed in transfected cells
T2 sequence (Q13224 27-1484): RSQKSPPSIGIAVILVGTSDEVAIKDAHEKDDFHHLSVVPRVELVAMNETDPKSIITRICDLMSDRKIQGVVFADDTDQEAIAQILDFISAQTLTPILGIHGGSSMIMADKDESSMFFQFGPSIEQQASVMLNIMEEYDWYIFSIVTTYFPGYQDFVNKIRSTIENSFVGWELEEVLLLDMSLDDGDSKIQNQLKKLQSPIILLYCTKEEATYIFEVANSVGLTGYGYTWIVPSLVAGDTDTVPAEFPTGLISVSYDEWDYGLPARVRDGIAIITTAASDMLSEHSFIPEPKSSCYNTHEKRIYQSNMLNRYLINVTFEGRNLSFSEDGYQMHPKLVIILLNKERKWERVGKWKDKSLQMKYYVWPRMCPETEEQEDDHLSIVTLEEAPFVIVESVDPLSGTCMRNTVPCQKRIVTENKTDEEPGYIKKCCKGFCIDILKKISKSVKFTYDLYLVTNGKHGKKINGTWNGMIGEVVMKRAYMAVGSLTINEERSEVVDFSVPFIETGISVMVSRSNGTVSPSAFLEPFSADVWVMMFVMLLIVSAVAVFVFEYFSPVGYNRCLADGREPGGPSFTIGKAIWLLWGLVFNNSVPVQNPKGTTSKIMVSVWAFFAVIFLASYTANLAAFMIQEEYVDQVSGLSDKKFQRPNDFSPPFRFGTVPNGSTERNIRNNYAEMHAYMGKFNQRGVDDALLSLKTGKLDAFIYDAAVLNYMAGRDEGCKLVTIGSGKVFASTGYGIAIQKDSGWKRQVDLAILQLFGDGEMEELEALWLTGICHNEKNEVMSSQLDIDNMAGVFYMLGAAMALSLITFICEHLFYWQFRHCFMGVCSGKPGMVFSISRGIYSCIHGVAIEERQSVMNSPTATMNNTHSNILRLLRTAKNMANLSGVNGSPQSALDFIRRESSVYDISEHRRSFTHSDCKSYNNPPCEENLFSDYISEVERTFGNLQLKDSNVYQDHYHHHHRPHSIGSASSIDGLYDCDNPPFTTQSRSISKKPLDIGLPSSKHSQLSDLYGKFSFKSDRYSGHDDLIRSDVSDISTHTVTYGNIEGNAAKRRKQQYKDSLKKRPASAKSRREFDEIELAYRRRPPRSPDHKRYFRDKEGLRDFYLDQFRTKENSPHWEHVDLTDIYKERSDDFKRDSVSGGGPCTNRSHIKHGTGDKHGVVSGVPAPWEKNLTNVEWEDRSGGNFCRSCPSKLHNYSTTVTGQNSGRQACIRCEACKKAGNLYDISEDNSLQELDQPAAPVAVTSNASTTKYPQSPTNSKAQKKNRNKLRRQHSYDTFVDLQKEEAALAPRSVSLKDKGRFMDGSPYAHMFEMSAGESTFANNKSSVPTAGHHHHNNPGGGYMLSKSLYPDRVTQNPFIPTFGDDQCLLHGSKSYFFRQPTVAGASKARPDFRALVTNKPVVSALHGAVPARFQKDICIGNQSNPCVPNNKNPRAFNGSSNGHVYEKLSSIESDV
Procedure: Human NR2B Cell Functional Assay
HEK293 cells stably expressing human NR1b/2B receptor were used for cell functional assay. Cells were grown in 75-cm^2 culture flasks, using Dulbecco's modified Eagle's medium (DMEM, high glucose) supplemented with 10% fetal bovine, 52 μg/ml Zeocin, 530 μg/ml Geneticin, 100 units/ml penicillin and 100 μg/ml streptomycin. Cells were maintained in a humidified atmosphere in 5% CO2 at 37° C., and 50-60% confluent cells were harvested by 0.05% trypsin containing 0.53 mM EDTA. The day before the experiment, expression of NR1b/2B receptor was induced by 5 μM ponasteron A in DMEM (40 ml) in the presence of 400 μM ketamine to prevent excitotoxicity. […]
Cells were washed with 10 ml of Ca^2+-free Krebs-Ringer Hepes buffer (KRH) containing 400 μM ketamine, and the loading of 5 μM fura-2 acetoxymethyl ester was made for 2 hrs at room temperature in the presence of 400 μM ketamine in Ca^2+-free KRH (10 ml). […] Fura-2 fluorescence (excitation wavelengths: 340 nm and 380 nm; emission wavelengths 510-520 nm) was monitored with a fluorescence imaging system, FDSS6000. The Δ fluorescence ratio F340/F380 (i.e., the fluorescence ratio immediately post-agonist—the basal fluorescence ratio; calculated as AUC) was used for evaluation of drug effects on agonists-induced changes in intracellular Ca^2+. The basal fluorescence ratio was determined in the presence of 10 μM MK-801.

QT prolongation = conditions: statement in words in Background Art; attributed to HERG inhibition

T1 sequence (Q00960 27-1482, other chains not shown): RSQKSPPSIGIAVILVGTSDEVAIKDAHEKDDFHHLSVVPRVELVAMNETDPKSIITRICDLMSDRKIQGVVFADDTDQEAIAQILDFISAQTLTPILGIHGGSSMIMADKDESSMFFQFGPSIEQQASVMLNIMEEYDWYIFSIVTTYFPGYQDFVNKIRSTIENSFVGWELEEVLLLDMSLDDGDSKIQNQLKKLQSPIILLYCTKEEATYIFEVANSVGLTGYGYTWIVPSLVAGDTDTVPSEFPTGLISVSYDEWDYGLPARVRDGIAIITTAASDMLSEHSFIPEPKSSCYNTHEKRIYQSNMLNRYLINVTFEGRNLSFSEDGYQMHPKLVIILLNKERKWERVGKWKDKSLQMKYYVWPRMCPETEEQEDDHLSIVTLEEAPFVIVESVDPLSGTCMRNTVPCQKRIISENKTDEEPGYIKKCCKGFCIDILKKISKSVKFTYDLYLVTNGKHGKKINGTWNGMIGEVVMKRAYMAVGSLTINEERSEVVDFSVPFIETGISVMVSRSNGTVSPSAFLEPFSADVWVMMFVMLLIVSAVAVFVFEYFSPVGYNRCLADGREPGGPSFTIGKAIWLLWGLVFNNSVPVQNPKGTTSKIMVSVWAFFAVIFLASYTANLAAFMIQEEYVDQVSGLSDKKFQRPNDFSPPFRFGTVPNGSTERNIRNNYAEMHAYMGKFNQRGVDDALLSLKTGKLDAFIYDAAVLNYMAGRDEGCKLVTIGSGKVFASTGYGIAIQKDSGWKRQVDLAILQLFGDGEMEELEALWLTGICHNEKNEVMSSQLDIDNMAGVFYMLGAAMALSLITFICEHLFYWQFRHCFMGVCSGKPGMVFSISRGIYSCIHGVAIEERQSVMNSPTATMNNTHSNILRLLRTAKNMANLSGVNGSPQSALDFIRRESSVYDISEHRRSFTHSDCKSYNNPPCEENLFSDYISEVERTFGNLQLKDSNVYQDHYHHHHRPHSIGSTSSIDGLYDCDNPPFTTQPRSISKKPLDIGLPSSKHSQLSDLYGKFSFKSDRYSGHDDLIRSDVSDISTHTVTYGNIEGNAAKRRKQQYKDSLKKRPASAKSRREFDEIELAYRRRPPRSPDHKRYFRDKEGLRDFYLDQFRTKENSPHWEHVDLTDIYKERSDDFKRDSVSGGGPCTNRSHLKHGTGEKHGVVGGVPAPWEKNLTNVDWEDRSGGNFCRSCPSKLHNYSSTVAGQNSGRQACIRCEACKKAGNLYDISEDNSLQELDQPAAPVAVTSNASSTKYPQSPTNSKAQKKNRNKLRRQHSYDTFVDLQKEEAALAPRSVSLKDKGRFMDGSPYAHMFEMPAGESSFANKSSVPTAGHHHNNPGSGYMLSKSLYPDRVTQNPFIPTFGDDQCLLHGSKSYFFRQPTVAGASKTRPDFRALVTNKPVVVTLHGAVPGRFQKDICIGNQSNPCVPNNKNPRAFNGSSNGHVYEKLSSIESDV

**Q.** What does the source list for O=C(CCc1ccccc1)N[C@H]1CO[C@H](c2ccc(O)cc2)OC1 [B]?
**A.** binding affinity (NR2B receptor) (NR2B receptor): insufficient; NR2B receptor antagonist activity (human NR1b/2B receptor): insufficient

**Q.** Which “binding affinity (NR2B receptor)” value (NR2B receptor) does the source give for O=C(CCc1ccccc1)N[C@H]1CC[C@H](c2ccc(O)cc2)CC1 [Compound A] here?
**A.** insufficient

**Q.** Which “binding affinity (NR2B receptor)” value (NR2B receptor) does the source give for CN(CCCc1ccc(F)cc1)[C@H]1CC[C@H](c2ccc3[nH]c(=O)oc3c2)CC1 [Compound E] here?
**A.** potent

**Q.** What about the QT prolongation (QT prolongation) of the same compound?
**A.** shows QT prolongation

**Q.** With O=C(CCc1ccc(Cl)cc1Cl)N[C@H]1CC[C@](O)(c2ccc(O)cn2)CC1 [Example 7, 3-(2,4-dichlorophenyl)-N-[cis-4-hydroxy-4-(5-hydroxypyridin-2-yl)cyclohexyl]propanamide] as the compound, how does the melting point read?
**A.** 198.1 °C

**Q.** With O=C(CCc1ccc(F)cc1)N[C@H]1CC[C@H](c2ccc(O)cn2)CC1 [Example 12, 3-(4-fluorophenyl)-N-[trans-4-(5-hydroxypyridin-2-yl)cyclohexyl]propanamide] as the compound, how does the melting point read?
**A.** 195.4 °C
